Reference: patent US7858615B2, “(S)-(-)-1-(4-fluoroisoquinolin-5-Yl)Sulfonyl-2-methyl-1,4-homopiperazine hydrochloride dihydrate” (Kowa Co., Ltd., priority 2004, dated 2010)
“Also recorded” adds a separate entry of the source. Where a name gives a salt, the structure may show the parent alone.

Columns and labels:
[1] = Test Example 2 (Hygroscopicity): weight increase in open weighing bottle at 25° C. and controlled RH; assay type: physicochemical; details: for hygroscopic stability in words: RH 33% or 92%, time-dependent; for water content reached with elapsed time: eventual value, hydrochloride
Procedure: Each of the dihydrate of the present invention produced in Example 1 and (S)-(−)-1-(4-fluoroisoquinolin-5-yl)sulfonyl-2-methyl-1,4-homopiperazine hydrochloride anhydrate (each 100 mg) was placed in a weighing bottle. The bottle was allowed to stand in a container maintained at 25° C. and an RH of 33% or 92%, with the container being opened. The weighing bottle was time-dependently weighed, to thereby determine increase in weight for evaluation of hygroscopicity. FIGS. 6 and 7 show the results.

[2] = Test Example 1 (Thermal Stability): storage in sealed containers in thermostats; assay type: physicochemical; details: for Percent remain (%): sealed container
Procedure: The dihydrate of the present invention produced in Example 1 was placed in sealable containers such that each container included 1 g of the dihydrate. After sealing, these containers were maintained in thermostats at 40, 60, and 80° C. for 7 and 14 days, so as to evaluate thermal stability.

hygroscopic stability in words [1]	water content reached with elapsed time ([1]; relative humidity 92%)	water content reached with elapsed time ([1]; relative humidity 92%, listed as anhydrate) [%]	water content after seven days ([1]; relative humidity 92%, seven days) [%]	thermal stability in words ([2]; after storage at 40° C., 60° C., or 80° C. for two weeks)	Percent remain (%) ([2]; storage temp. 40° C., storage period 7 days)	Percent remain (%) ([2]; storage temp. 40° C., storage period 14 days)	Percent remain (%) ([2]; storage temp. 60° C., storage period 7 days)	Percent remain (%) ([2]; storage temp. 60° C., storage period 14 days)	Percent remain (%) ([2]; storage temp. 80° C., storage period 7 days)	Percent remain (%) ([2]; storage temp. 80° C., storage period 14 days)	thermal stability (decomposition or undesired reaction) in words ([2]; stored at 80° C. for two weeks)	Structure (SMILES)	change of water content (hygroscopic behavior) in words ([1]; relative humidity 92% RH, 14 days, hydrochloride dihydrate)
poor hygroscopic stability	about 40%	40	40	–	–	–	–	–	–	–	–	C[C@H]1CNCCCN1S(=O)(=O)c1cccc2cncc(F)c12.Cl [anhydrous crystals, (S)-(−)-1-(4-fluoroisoquinolin-5-yl)sulfonyl-2-methyl-1,4-homopiperazine hydrochloride]	–
excellent hygroscopic stability	–	–	–	high thermal stability	100.0	99.6	99.6	99.8	99.8	99.8	does not decompose	C[C@H]1CNCCCN1S(=O)(=O)c1cccc2cncc(F)c12 [dihydrate, (S)-(−)-1-(4-fluoroisoquinolin-5-yl)sulfonyl-2-methyl-1,4-homopiperazine hydrochloride dihydrate]	constant; also recorded: no change in its water content
